Results reported in the PolyMetriX glass transition set.
± gives the standard deviation of the reports.

*c1ccc2c(c1)C(=O)N(c1c(C)cc(Cc3cc(C)c(N4C(=O)c5ccc(C(*)(C(F)(F)F)C(F)(F)F)cc5C4=O)c(C)c3)cc1C)C2=O (repeat unit) and *C(=O)c1ccc2c(c1)C(=O)N(c1c(C)cc(Cc3cc(C)c(N4C(=O)c5ccc(*)cc5C4=O)c(C)c3)cc1C)C2=O (repeat unit) are within error of each other in glass transition temperature: 307.50 °C for the first, 320.00 ± 16 °C for the second.

Compared with *c1ccc(Oc2ccc(N3C(=O)c4cc(-c5ccc(C(C)(C)C)cc5)c(-c5cc6c(cc5-c5ccc(C(C)(C)C)cc5)C(=O)N(*)C6=O)cc4C3=O)cc2)cc1 (repeat unit), *c1ccc(Oc2ccc(-c3ccc(Oc4ccc(N5C(=O)c6ccc(Oc7ccc(C(C)(C)c8ccc(Oc9ccc%10c(c9)C(=O)N(*)C%10=O)cc8)cc7)cc6C5=O)cc4)cc3)cc2)cc1 (repeat unit) is lower in glass transition temperature: 370.00 °C for the first, 220.00 °C for the second.

Going from *Oc1ccc(C2(c3ccc(OC(*)=O)cc3C)CC3CC2C2C4CCC(C4)C32)cc1C (repeat unit) to *Oc1c(C)cc(C2(c3cc(C)c(Oc4ccc(C(=O)c5ccc(*)cc5)cc4)c(C)c3)CCC3CCCCC3C2)cc1C (repeat unit), the glass transition temperature rises from 232.00 °C to 251.00 °C.

Compared with *CCCNC(=O)c1ccc(C(=O)NCCCO*)cc1 (repeat unit), *CCCCCCCCCCOC(=O)Nc1ccc(Cc2ccc(NC(=O)O*)cc2)cc1 (repeat unit) is lower in glass transition temperature: 72.00 °C for the first, 60.00 °C for the second.

Compared with *c1ccc(Cc2ccc(N3C(=O)C4CCC5C(=O)N(*)C(=O)C5C4C3=O)c(C)c2)cc1C (repeat unit), *OC(=O)c1cccc(OCCCCCCOc2cccc(C(=O)OC3COC4C(*)COC34)c2)c1 (repeat unit) is lower in glass transition temperature: 340.00 °C for the first, 43.50 °C for the second.

Compared with *CCCC(C)(C)CNC(=O)CCCC(=O)N* (repeat unit), *C(=O)CCCCCCCCC(=O)NC1CCCCN(*)C1 (repeat unit) is lower in glass transition temperature: 82.00 °C for the first, -46.50 °C for the second.

Compared with *[Si](*)(CCCC)CCCCCC (repeat unit), *CCC[Si](*)(C)O[Si](C)(C)CCCOc1ccc(C(=O)Oc2ccc(-c3ccc(C#N)cc3)cc2)cc1 (repeat unit) is higher in glass transition temperature: -40.00 °C for the first, 10.10 °C for the second.

First: *Oc1ccc(NC(=O)c2cc(C(=O)Nc3ccc(*)cc3)cc(S(=O)(=O)c3ccccc3)c2)cc1 (repeat unit)
Second: *C(=O)NNC(=O)c1ccc([Si](c2ccccc2)(c2ccccc2)c2ccc(C(=O)NNC(=O)c3ccc(*)nc3)cc2)cc1 (repeat unit)
The glass transition temperature of the first is higher: 279.00 °C for the first, 240.00 °C for the second.

First: *Oc1ccc(OC(=O)c2ccc(C(*)=O)cc2)cc1C(F)(F)F (repeat unit)
Second: *CC(*)(C)C(=O)Oc1ccc(C(=O)Oc2ccccc2)cc1 (repeat unit)
The glass transition temperature of the first is higher: 159.30 °C for the first, 99.00 °C for the second.

First: *c1ccc(Oc2ccc(C(=O)c3ccc(C(=O)c4ccc(Oc5ccc(-c6nc7ccccc7n6-c6ccc(-n7c(*)nc8ccccc87)cc6)cc5)cc4)cc3)cc2)cc1 (repeat unit)
Second: *c1ccc(Oc2ccc(C(=O)c3ccc(Oc4ccc(-c5c6c(c(*)c7ccccc57)C(=O)N(c5ccc(C(F)(F)F)cc5)C6=O)cc4)cc3)cc2)cc1 (repeat unit)
The glass transition temperature of the first is lower: 238.00 °C for the first, 260.00 °C for the second.

Going from *CC(*)c1ccc(OC(C)=O)cc1 (repeat unit) [poly(4-acetoxystyrene)] to *CC(*)C1=NCCN1 (repeat unit), the glass transition temperature falls from 121.42 ± 12 °C to -48.3 °C.

Compared with *O[Si](C)(C)O[Si](C)(C)O[Si](C)(C)O[Si](C)(C)O[Si](C)(C)C#Cc1ccc(C#C[Si](*)(C)C)cc1 (repeat unit), *O[Si](C)(C)O[Si](C)(C)O[Si](*)(c1c(F)c(F)c(F)c(F)c1F)c1c(F)c(F)c(F)c(F)c1F (repeat unit) is lower in glass transition temperature: 78.00 °C for the first, -42.00 °C for the second.

For *Nc1cc(NC(=O)c2cc(OCCCN(C)c3ccc(/N=N/c4ccc(S(C)(=O)=O)cc4)cc3)cc(C(*)=O)c2)cc(C(=O)OCCCN(C)c2ccc(/N=N/c3ccc(S(C)(=O)=O)cc3)cc2)c1 (repeat unit), the glass transition temperature was 168.00 °C.
